Results taken from patent US20090186915A1, “Compositions and methods for treatment of glioblastoma, gliosarcoma, NSCLC, and head and neck cancer” (Unibioscreen S. A., priority 2006, published 2009).
“And” between values parts separate entries of the source, which are not always exact repeats. Equal entries are not always repeated. Where two headings read alike, the source gives them in different places. Blank lines part the entries; values can stand above or below the compound they belong to.

Columns and labels:
[1] = test system: PC-3; assay: Senescence-associated β-galactosidase staining, PC-3; format: cell-based, human; details: 20 nM Adriamycin, 72 hours
Procedure: After the indicated treatments, cells were washed in PBS, fixed for 3 to 5 minutes (at room temperature) in 2% formaldehyde/0.2% glutaraldehyde, washed and incubated at 37° C. (in the absence of CO2) with fresh senescence-associated β-Gal (SA-β-Gal) staining solution: 1 mg/ml of 5-bromo-4-chloro-3-indolyl […] (X-Gal; Sigma). Staining was evident within 2 to 4 hours and maximal after 12 to 16 hours. To detect lysosomal β-Gal, the citric acid/sodium phosphate used was pH 4.0. As described in the study of Dimri et al. [Proc Natl Acad Sci USA. 1995; 92:9363-9367.], after fixing and staining with X-Gal, the number of cells positive for the SA-β-Gal activity (intense blue staining) was then counted independently by two different individuals (on 400 cells/plate). Representative photographs (original magnifications, ×20) of stained cells from different experimental treatments were taken. As a positive control for SA-β-Gal expression, Adriamycin-treated cells were used.
Human PC-3 and DU-145 prostate cancer cells cultured in 0 or 10 μM UNBS5162 or 20 nM Adriamycin for 72 hours were evaluated by SA-β-Gal staining. The data clearly indicate that 10 μM [but not 1 μM or 5×1 μM] […] TMZ, as an inducer of autophagy but not of senescence, was used as a negative control.

[2] = test system: PC3; assay: MTT overall cell growth, PC3 cells; format: cell-based; details: Homo sapiens, 72 h; PC-3; 3 days of culturing; mean of six determinations; read-out: IC50 (μM) In Vitro Growth Inhibition
Procedure: Tests were performed in order to rapidly, i.e. within 5 days, measure the effect of the compound of example 2 on the overall cell growth. The test measures the number of metabolically active living cells that are able to transform the yellow product 3-(4,5-dimethylthiazol-2-yl)-2,5-diphenyl tetrazolium bromide (herein referred as MTT) into the blue product formazan dye by mitochondrial reduction. The amount of formazan obtained at the end of the experiment, measured by means of a spectrophotometer, is directly proportional to the number of living cells. Optical density determination thus enables a quantitative measurement of the effect of the investigated compounds as compared to the control condition (untreated cells) and/or to other reference compounds. […]
(§1) After 72 hours of incubation at 37° C. with (experimental conditions) or without (control condition) the compound to be tested, the medium was replaced by 100 μl MTT dissolved in RPMI (1640 without phenol red) at a concentration of 1 mg/ml. […] The micro-wells were shaken for 5 minutes and read on a spectrophotometer at wavelengths of 570 nm (maximum formazan absorbance) and 630 nm (back-ground noise).
For each experimental condition, the mean optical density was calculated, as well as the percentage of remaining living cells in comparison with the control. […]

[3] = test system: U-373MG; assay: MTT overall cell growth, U-373MG cells; format: cell-based; details: Homo sapiens, 72 h; U373-MG; 3 days of culturing; mean of six determinations; read-out: IC50 (μM) In Vitro Growth Inhibition
Procedure: (§2) Tests were performed in order to rapidly, i.e. within 5 days, measure the effect of the compound of example 2 on the overall cell growth. The test measures the number of metabolically active living cells that are able to transform the yellow product 3-(4,5-dimethylthiazol-2-yl)-2,5-diphenyl tetrazolium bromide (herein referred as MTT) into the blue product formazan dye by mitochondrial reduction. The amount of formazan obtained at the end of the experiment, measured by means of a spectrophotometer, is directly proportional to the number of living cells. Optical density determination thus enables a quantitative measurement of the effect of the investigated compounds as compared to the control condition (untreated cells) and/or to other reference compounds.
(§3) Six human cancer cell lines described in table 1 were used in the following MTT tests. These cell lines cover six histological cancer types, being prostate, glioma, pancreas, colon, lung and breast cancers. Cells were allowed to grow in 96 well micro-wells with a flat bottom with an amount of 100 μl of cell suspension per well with 1,000 to 4,000 cells/well depending on the cell type used. Each cell line was seeded in a well known MEM 10% serum culture medium. […]
as §1
(§4) For each experimental condition, the mean optical density was calculated, as well as the percentage of remaining living cells in comparison with the control.
(§5) The overall growth of human cancer cell lines was determined by means of the calorimetric MTT (3-[4,5-dimethylthiazol-2-yl]-diphenyl tetrazolium bromide; Sigma) assay, as detailed previously.

[4] = test system: BxPC3; assay: MTT overall cell growth, BxPC3 cells; format: cell-based; details: Homo sapiens, BXPC-3, 72 h; Bx-PC-3; 3 days of culturing; mean of six determinations; read-out: IC50 (μM) In Vitro Growth Inhibition
Procedure: as §2, §3, §1, §4, §5

[5] = test system: DU-145; assay: MTT colorimetric assay, DU-145 cells; format: cell-based; details: Homo sapiens, 72 h, 3 days of culturing, mean of six determinations, read-out: IC50 (μM) In Vitro Growth Inhibition
Procedure: as §5

[6] = test system: Hs683; assay: MTT colorimetric assay, Hs683 cells; format: cell-based; details: Homo sapiens, Hs 683, 72 h, 3 days of culturing, mean of six determinations, read-out: IC50 (μM) In Vitro Growth Inhibition
Procedure: as §5

[7] = test system: HCT-15; assay: MTT colorimetric assay, HCT-15 cells; format: cell-based; details: Homo sapiens, 72 h, 3 days of culturing, mean of six determinations, read-out: IC50 (μM) In Vitro Growth Inhibition
Procedure: as §5

[8] = test system: LoVo; assay: MTT colorimetric assay, LoVo cells; format: cell-based; details: Homo sapiens, 72 h, 3 days of culturing, mean of six determinations, read-out: IC50 (μM) In Vitro Growth Inhibition
Procedure: as §5

[9] = test system: MCF-7; assay: MTT colorimetric assay, MCF-7 cells; format: cell-based; details: Homo sapiens, MCF7, 72 h, 3 days of culturing, mean of six determinations, read-out: IC50 (μM) In Vitro Growth Inhibition
Procedure: as §5

[10] = test system: A549; assay: MTT colorimetric assay, A549 cells; format: cell-based; details: Homo sapiens, 72 h, 3 days of culturing, mean of six determinations, read-out: IC50 (μM) In Vitro Growth Inhibition
Procedure: as §5

[11] = test system: nine human cancer cell lines; assay: MTT colorimetric assay, mean of nine cell lines; format: cell-based; details: mean over nine human cancer cell lines, read-out: mean antiproliferative activity IC50
Procedure: as §5
UNBS3157 and UNBS5162 display weak antiproliferative activity in vitro.

[12] = test system: P-glycoprotein; assay: P-gp ATPase activity (P-gp Drug interaction Assay Kit); format: biochemical
Procedure: In order to test drug interaction with P-glucoprotein (herein-after referred as P-gp) we used an assay based on the study of modulation of ATPase activity from enriched P-gp membrane vesicle preparation (the following kit has been used: P-gp Drug interaction Assay Kit commercially available from SPI BIO France). P-gp ATPase activity was measured by a spectrophotometric method based on monitoring of ADP formation in the vesicle suspension medium. The basal ATPase activity was defined as the activity determined in the absence of any added drug. […]

[13] = test system: human PC-3 orthotopic xenografts
Procedure: (§6) Orthotopic xenografts were obtained by injecting 2.5×10^6 human PC-3 or DU-145 cells into the prostate of 6-week-old male nu/nu mice (n=9 animals per treatment group). All grafts were performed under anesthesia [saline/Rompun (Bayer, Leverkusen, Germany)/Imalgene (Merial, Lyons, France); 5:1:1 by volume]. The end point in these orthotopic experiments was the survival period of the tumor-bearing mice after the administration of UNBS3157, UNBS5162, or reference anticancer agents (taxol, mitoxantrone, and amonafide). However, for ethical reasons, animals were killed when 20% of body weight had been lost compared to that determined at the time of tumor grafting. All animals were weighed three times a week. […] In the case of UNBS5162 experiments in the PC-3 model, after the sacrifice of animals, tumors were removed from both drug-treated [10 mg/kg, intravenous (i.v.)] and vehicle-treated mice, fixed in buffered formalin, embedded in paraffin, and 5-μm-thick sections taken. These histologic slides were then stained with hematoxylin and eosin for blood vessel counts.

[14] = test system: human DU-145 orthotopic xenografts; assay: Orthotopic DU-145 prostate cancer xenograft, survival; format: in vivo, nu/nu mice; details: DU-145 orthotopic model
Procedure: as §6

[15] = In vitro stability of UNBS3157 in saline/DMSO; format: physicochemical; details: physiological saline/DMSO (95:5 v/v), 37° C.
[16] = test system: human A549 NSCLC orthotopic; details: Taxol i.v. 20 mg/kg (1i × 3w)
Procedure: The purpose of the present study was to evaluate the in vivo efficacy of UNBS5162 on human A549 NSCLC orthotopic nude mice model. The endpoint in this experiment was the survival period of the tumor-bearing mice following treatment, as indicated.
The experiment comprised 6 groups of II mice, one group with mice receiving the vehicle only (Ct group) and 5 groups receiving the treatments as indicated in the Table 13. UNBS5162 was dosed i.v. at 10 mg/kg (in lactic acid vehicle). Taxol (Paclitaxel 6 mg/mL, Bristol-Myers Squibb) was dosed i.v. at 20 mg/kg.

[17] = test system: platelets, red and white blood cells; assay: Compound-induced hematotoxicity and tolerance in mice; format: in vivo; details: five times a week for three weeks
Procedure: We have determined the compound-induced potential hematotoxicity of the compound produced according to example 2 or example 7 on platelets, red and white blood cells in comparison of the effect of amonafide on platelets, red and white blood cells. The effect of amonafide was evaluated at 10 mg/kg and 20 mg/kg, by the intra-peritoneal administration to mice. The administration schedule was five times a week for three consecutive weeks. The effect of the compound produced according to example 2 or example 7 was evaluated at 20 mg/kg, by the intra-venous administration to mice. The administration schedule was three times a week (on Mondays, Wednesdays and Fridays) for five consecutive weeks. The animals were sacrificed 3 days after the last injection. There were 10 mice per group. FIG. 1 illustrates results of this assay for compound-induced hematotoxicity on platelets.

SA-β-Gal expression [1]: Limited SA-β-Gal expression
Structure (SMILES): COc1cccc2c1C(=O)c1c(O)c3c(c(O)c1C2=O)C[C@@](O)(C(=O)CO)C[C@@H]3O[C@H]1C[C@H](N)[C@H](O)[C@H](C)O1 [Adriamycin, doxorubicin, reference compound]

Structure (SMILES): CN(C)CCN1C(=O)c2cccc3cc(NC(=O)NC(=O)C(Cl)(Cl)Cl)cc(c23)C1=O [UNBS3157, 2,2,2-trichloro-N-[({2-[2-(dimethylamino)ethyl]-1,3-dioxo-2,3-dihydro-1H-benzo[de]isoquinolin-5-yl}amino)carbonyl]acetamide]
IC50 [2]: 15.1 µM | IC50 [3]: 3.9 µM | IC50 [4]: 17.2 µM | IC50 [5]: 23 µM | IC50 [6]: 9.9 µM | IC50 [7]: 29.3 µM | IC50 [8]: 26.4 µM | IC50 [9]: 44.3 µM | IC50 [10]: 8.7 µM | IC50 [11]: 19.8 µM | modulation of Pgp ATPase activity ([12]; 100 μM (data not shown)): do not affect Pgp ATPase activity | % T/C ([13]; PC-3 orthotopic model, 40 mg/kg p.o.): 100% | % T/C ([13]; PC-3 orthotopic model, 160 mg/kg orally): 151% | % T/C ([14]; 20 mg/kg i.v.): 143% | % T/C ([14]; 40 mg/kg orally): 164% | production of amonafide on hydrolysis ([15]; 22-hour incubation): without production of amonafide | hydrolyzed to UNBS5162 ([15]; in 270 minutes, 10^−4 M): 90%

Structure (SMILES): O=C1c2c(O)ccc(O)c2C(=O)c2c(NCCNCCO)ccc(NCCNCCO)c21 [mitoxantrone, reference compound]
therapeutic benefit (survival) ([13]; PC-3 orthotopic model, mitoxantrone i.v.): failed to contribute any therapeutic benefit | toxicity ([13]; mouse, in vivo, iv, 2.5 mg/kg): highly toxic

Structure (SMILES): CC(=O)O[C@H]1C(=O)[C@@]2(C)[C@H]([C@H](OC(=O)c3ccccc3)[C@]3(O)C[C@H](OC(=O)[C@H](O)[C@@H](NC(=O)c4ccccc4)c4ccccc4)C(C)=C1C3(C)C)[C@]1(OC(C)=O)CO[C@@H]1C[C@@H]2O [taxol, reference compound]
% T/C ([14]; 20 mg/kg i.v.): 146% | T/C (%) [16]: 128%

Structure (SMILES): CN(C)CCN1C(=O)c2cccc3cc(N)cc(c23)C1=O [amonafide]
tolerance of chronic administrations ([17]; 10 mg/kg intra-peritoneal): tolerated 15 chronic administrations | tolerance of chronic administrations ([17]; 20 mg/kg intra-peritoneal): all animals died before receiving the complete set of 15 administrations | modulation of basal P-gp ATPase activity ([12]; 50 μM): significantly alter the ATPase activity | % T/C ([13]; PC-3 orthotopic model, 40 mg/kg p.o., 40 mg/kg): 103% and 107% | activity (survival) ([14]; 20 mg/kg i.v. and lower doses): inactive | % T/C ([14]; 40 mg/kg orally): 138%
